Reference: US7829499B2, “Granular pesticide preparation” (Kumiai Chemical Industry Co., Ltd., priority 2003, dated 2010)

Assay: pKa of the pesticidal active ingredient
Format: physicochemical
Description: When the acidic pesticidal active ingredient having the above specified pKa is used, the pKa of the ingredient is, for example, measured by a method described in “Jikken Kagaku Kouza”, Vol. 5 (thermal measurement and equilibrium), p. 469-p. 474, Maruzen Co., Ltd. published Jan. 20, 1958 and elsewhere.

| Compound | pKa |
| --- | --- |
| COCc1cccc(C(O)c2nc(OC)cc(OC)n2)c1NS(=O)(=O)C(F)F (centres unmarked) [compound A, 2-[(4,6-dimethoxypyrimidin-2-yl)hydroxymethyl]-6-methoxymethyl-N-difluoromethanesulfonyl anilide] | 5.75 |
| CCc1cccc(C(O)c2nc(OC)cc(OC)n2)c1NS(=O)(=O)C(F)F (centres unmarked) [compound B, 2-[(4,6-dimethoxypyrimidin-2-yl)hydroxymethyl]-6-ethyl-N-difluoromethanesulfonyl anilide] | 6.17 |
